Assay results: ChEMBL document CHEMBL1201862, “PubChem BioAssay data set” (2004)
Calls of active or inactive are those of the source.

Assays:
[1] = inhibitors of HIV Env-driven cell fusion, dose response, cherry-pick (AID 652057); format: functional, cell-based
[2] = ZM109 Env clade C HIV-1 fusion inhibitors, dose response, HeLa effector, CEM target cells, luciferase, cherry-pick (AID 652058); format: functional, cell-based
[3] = off-target signal loss in HeLa-CEM21 co-culture – HeLa F-luc CTL cells, cherry-picked, counter-screen for HIV-1 Env fusion inhibitor project, dose response (AID 652040); format: functional, cell-based;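 also: potency for signal decrease marking cytotoxic or nonspecific inhibition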
[4] = inhibitors of clade B AD8 Env fusion, dose response, cell-based, cherry-pick (AID 652062); format: functional;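 also: luciferase signal from cell-cell fusion driven by HIV-1 clade B AD8 Env; potency is for inhibitors of fusion seen as a drop in luminescence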
[5] = target: T1, Carboxy-terminal domain RNA polymerase II polypeptide A small phosphatase 1 (Homo sapiens, UniProt Q9GZU7); experiment: inhibitors of CTDSP1, concentration-response testing, biochemical assay, absorbance-based, actives from ultra-high-throughput screening (AID 540297); format: functional
T1 sequence (Q9GZU7 whole entry): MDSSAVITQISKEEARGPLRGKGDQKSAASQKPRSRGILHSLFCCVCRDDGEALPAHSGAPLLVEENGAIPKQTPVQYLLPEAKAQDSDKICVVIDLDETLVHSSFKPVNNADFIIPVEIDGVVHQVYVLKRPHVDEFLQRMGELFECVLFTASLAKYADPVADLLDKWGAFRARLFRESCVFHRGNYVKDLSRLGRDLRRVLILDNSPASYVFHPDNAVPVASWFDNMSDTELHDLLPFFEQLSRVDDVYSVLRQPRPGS

[6] = target: T2, Heat shock factor protein 1 (Mus musculus, UniProt P38532); experiment: inhibition of MG132-induced HSE-luciferase signal, confirmation, cell-based, NIH3T3, luminescence, dose retest (AID 2382); format: functional;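 also: NIH3T3 fibroblasts with HSF1-driven luciferase reporter stressed by proteasome inhibitor MG132; luminescence from HSF1-driven luciferase expression after 8 hours of MG132 stress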
T2 sequence (P38532 whole entry): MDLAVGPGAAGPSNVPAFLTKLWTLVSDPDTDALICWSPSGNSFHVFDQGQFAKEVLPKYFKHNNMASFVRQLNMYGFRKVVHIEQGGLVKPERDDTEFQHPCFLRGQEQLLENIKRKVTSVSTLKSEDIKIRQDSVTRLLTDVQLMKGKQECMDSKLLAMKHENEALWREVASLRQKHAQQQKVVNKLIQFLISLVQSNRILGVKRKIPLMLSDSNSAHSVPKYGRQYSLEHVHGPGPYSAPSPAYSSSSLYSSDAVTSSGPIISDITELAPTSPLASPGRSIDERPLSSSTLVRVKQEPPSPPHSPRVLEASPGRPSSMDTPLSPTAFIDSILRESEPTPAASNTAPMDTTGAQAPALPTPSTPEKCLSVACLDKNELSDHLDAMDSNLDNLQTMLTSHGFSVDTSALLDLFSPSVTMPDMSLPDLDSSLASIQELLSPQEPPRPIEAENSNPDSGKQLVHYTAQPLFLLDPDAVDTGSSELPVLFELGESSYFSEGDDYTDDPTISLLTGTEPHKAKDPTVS

[7] = growth suppression of PTEN-null colon cells, dose response, cell-based, HCT116 PTEN knockout (AID 1047); format: functional;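 also: HCT116 colon tumor cells with PTEN knocked out; cells exposed to compound for 60 hours before readout; potency for loss of cell viability measured by luminescence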
[8] = growth suppression of beta-catenin-knockout colon cells, dose response, cell-based, HCT116, human colon tumor (AID 1045); format: functional;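 also: HCT116 colon tumor cells with beta catenin knocked out; cells exposed to compound for 60 hours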
[9] = tested on: Streptococcus sp. 'group A'; experiment: growth inhibition of control SK(-) GAS strain, dose response, counter-screen for streptokinase expression inhibitor project, luminescence, kanamycin, BacTiterGlo, confirmation (AID 1900); format: functional, organism-based
[10] = tested on: Streptococcus; experiment: Group A Streptococcus viability loss, dose response, counter-screen for streptokinase expression inhibitor project, luminescence, BacTiterGlo (AID 1915); format: functional, organism-based;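 also: potency for reduction of bacterial viability or growth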
[11] = target: T3, Fatty acid synthase (Homo sapiens, UniProt P49327); experiment: FAS thioesterase domain inhibitors, dose response, biochemical, endpoint fluorescence intensity, uHTS hits (AID 624327); format: functional;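 also: fluorescence from hydrolysis of an O-methyl fluorescein acyl ester substrate by the enzyme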
[12] = target: T3, Fatty acid synthase; experiment: FAS thioesterase domain inhibitors, dose response, biochemical, kinetic fluorescence intensity (AID 624326); format: functional;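 also: rate of fluorescence rise from hydrolysis of a fluorogenic O-methyl fluorescein ester substrate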
[13] = target: T4, Streptokinase A (Streptococcus pyogenes serotype M1, UniProt P10520); experiment: S. pyogenes streptokinase expression inhibitors, potency, dose response, plasminogen activation absorbance, OD405 (AID 1914); format: functional, Streptococcus pyogenes M1 GAS;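 also: secreted streptokinase activity via plasminogen activation per viability signal from cell pellet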
T4 sequence (P10520 whole entry): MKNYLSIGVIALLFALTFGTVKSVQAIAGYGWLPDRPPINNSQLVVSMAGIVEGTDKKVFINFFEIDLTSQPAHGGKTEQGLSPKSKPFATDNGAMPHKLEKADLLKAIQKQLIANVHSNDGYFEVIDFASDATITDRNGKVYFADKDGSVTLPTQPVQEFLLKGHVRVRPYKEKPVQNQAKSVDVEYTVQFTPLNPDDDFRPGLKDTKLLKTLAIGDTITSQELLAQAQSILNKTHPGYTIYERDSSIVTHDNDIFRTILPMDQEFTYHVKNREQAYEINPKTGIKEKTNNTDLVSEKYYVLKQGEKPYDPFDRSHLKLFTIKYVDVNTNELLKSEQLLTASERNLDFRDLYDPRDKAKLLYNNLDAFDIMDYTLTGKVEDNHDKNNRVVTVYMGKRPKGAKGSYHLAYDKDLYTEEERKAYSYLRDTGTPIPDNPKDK

[14] = target: Genome polyprotein (dengue virus type 2, UniProt P29990); experiment: Dengue-2 NS5 methyltransferase inhibitors, primary screen, biochemical, confirmation dose response (AID 588689); format: functional
Chain of Genome polyprotein (P29990 2492-3391 limits assumed): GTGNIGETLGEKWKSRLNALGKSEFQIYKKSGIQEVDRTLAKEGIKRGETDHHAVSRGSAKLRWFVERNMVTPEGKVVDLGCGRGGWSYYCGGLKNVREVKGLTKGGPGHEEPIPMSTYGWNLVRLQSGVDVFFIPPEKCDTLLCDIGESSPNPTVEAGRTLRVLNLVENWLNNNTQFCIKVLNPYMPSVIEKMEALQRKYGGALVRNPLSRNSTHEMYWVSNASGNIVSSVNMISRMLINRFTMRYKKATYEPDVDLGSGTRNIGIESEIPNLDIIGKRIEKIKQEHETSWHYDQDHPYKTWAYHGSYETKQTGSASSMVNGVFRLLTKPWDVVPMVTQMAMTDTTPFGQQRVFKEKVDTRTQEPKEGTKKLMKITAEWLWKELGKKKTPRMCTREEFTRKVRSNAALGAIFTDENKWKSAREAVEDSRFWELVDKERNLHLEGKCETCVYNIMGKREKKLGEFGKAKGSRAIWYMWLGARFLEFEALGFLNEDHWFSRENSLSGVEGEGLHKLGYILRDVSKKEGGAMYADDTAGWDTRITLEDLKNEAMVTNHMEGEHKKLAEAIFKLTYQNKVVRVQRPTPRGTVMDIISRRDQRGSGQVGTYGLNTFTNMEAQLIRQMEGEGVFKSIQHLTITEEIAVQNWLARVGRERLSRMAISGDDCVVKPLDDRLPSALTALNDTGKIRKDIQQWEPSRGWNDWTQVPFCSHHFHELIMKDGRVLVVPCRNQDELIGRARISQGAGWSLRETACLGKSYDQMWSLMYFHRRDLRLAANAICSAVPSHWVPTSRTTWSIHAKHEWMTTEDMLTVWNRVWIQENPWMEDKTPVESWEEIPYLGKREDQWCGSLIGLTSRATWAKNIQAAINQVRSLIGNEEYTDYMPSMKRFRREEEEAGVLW

T3 sequence (P49327 whole entry, the tested form may be a part): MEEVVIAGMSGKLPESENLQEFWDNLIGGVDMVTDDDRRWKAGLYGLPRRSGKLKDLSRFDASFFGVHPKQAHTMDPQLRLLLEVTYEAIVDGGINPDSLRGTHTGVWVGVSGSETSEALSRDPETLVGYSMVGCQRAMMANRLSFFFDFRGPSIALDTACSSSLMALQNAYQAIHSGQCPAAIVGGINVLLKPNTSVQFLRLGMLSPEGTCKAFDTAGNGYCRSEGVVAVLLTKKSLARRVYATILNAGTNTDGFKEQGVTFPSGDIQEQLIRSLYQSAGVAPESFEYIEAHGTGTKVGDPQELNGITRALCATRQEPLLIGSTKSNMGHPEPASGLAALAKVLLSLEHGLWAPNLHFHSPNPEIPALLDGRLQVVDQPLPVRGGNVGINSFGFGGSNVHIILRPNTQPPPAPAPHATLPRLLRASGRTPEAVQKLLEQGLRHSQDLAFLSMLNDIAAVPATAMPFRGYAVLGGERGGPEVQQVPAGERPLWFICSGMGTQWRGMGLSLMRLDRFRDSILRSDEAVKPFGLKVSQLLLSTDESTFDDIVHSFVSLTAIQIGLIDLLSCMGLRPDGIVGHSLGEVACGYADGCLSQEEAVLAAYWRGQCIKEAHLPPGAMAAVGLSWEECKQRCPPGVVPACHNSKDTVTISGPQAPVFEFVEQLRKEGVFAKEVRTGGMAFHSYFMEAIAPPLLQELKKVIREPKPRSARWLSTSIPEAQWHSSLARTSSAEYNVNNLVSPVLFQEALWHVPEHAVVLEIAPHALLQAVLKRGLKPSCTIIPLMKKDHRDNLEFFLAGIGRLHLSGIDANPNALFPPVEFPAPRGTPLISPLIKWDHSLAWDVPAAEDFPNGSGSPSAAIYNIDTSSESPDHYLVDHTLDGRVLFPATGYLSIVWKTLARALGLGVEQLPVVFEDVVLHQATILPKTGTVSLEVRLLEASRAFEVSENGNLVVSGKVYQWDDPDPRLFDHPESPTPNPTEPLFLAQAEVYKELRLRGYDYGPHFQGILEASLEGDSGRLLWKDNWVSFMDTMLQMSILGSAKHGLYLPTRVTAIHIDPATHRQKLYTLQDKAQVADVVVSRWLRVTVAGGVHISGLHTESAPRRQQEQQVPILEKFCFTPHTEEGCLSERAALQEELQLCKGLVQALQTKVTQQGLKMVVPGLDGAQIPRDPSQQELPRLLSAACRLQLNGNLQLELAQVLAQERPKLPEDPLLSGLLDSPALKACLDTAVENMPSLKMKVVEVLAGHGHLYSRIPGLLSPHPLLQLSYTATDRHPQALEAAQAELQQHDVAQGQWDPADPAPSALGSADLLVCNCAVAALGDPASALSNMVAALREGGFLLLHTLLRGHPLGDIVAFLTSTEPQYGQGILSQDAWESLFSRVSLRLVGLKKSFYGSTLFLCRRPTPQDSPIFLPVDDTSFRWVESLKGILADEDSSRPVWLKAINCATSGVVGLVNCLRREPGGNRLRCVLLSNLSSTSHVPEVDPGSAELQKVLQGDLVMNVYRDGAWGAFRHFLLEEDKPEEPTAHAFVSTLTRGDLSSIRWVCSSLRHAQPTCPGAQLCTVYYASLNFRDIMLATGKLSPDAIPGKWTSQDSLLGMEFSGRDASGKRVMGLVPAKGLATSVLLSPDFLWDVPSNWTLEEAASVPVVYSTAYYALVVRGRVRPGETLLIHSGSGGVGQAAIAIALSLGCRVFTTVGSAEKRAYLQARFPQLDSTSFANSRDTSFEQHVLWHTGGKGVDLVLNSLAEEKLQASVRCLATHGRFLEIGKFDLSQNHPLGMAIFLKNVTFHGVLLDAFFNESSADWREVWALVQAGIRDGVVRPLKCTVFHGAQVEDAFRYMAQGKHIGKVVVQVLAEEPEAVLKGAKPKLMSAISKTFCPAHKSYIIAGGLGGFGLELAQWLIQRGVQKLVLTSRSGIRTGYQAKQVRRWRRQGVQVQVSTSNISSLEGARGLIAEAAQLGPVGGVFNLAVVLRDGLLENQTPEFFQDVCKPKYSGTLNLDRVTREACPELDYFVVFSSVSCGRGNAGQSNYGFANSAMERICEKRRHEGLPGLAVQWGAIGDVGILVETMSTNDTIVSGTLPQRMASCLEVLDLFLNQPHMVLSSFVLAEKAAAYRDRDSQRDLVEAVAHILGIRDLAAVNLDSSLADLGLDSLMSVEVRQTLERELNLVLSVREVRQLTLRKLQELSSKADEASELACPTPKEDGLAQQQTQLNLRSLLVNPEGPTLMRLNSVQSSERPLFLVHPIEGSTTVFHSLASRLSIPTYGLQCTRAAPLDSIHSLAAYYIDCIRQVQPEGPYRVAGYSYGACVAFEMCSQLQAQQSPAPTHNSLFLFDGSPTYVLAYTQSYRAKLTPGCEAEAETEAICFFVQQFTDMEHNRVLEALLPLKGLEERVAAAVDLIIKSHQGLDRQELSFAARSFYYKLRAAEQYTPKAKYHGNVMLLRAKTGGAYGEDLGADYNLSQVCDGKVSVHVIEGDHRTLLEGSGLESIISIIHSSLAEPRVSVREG

COC(=O)[C@]1(C)N[C@H](CN(C)C(=O)Nc2ccc(Cl)cc2)[C@@H]2C(=O)N(Cc3ccccc3)C(=O)[C@@H]21
AC50 [1]: 0.659 µM (active) | AC50 [2]: 1.12 µM (active) | AC50 [3]: 1.5 µM (active) | AC50 [4]: 1.3 µM (active)

O=C(O)c1cc(S(=O)(=O)N2CCN(S(=O)(=O)c3ccc4ccccc4c3)CC2)ccc1Br
IC50 [5]: 6.22 µM (active)

COc1cc(/C=C2\C(=N)N3N=C(S(C)(=O)=O)SC3=NC2=O)ccc1OC(=O)c1ccco1
IC50 [5]: 4.55 µM (active)

CCOc1ccc2nc(NC(=O)c3cc([N+](=O)[O-])ccc3N3CCOCC3)sc2c1
EC50 [6]: 15 µM (active) | EC50 [7]: 23.3 µM (active) | EC50 [8]: 48.5 µM (active)

COc1cc([N+](=O)[O-])cc(/C=N/NC(=O)c2cccnc2)c1O
EC50 [9]: 2.99 µM (active) | EC50 [10]: 1.76 µM (active) | IC50 [11]: 9.23 µM (active) | IC50 [12]: 9.94 µM (active)

O=C(COc1ccc2c3c(c(=O)oc2c1)CCC3)N1CCN(c2ccccc2)CC1
IC50 [11]: 12.2 µM (active) | IC50 [12]: 8.68 µM (active)

O=C(Oc1ccc(/N=C2\C(=O)c3ccccc3C(O)=C2Cl)cc1)c1ccc([N+](=O)[O-])cc1
EC50 [9]: 20.7 µM (active) | EC50 [13]: > 150 µM (not active) | EC50 [7]: 9.05 µM (active) | EC50 [8]: 4.97 µM (active) | EC50 [10]: 44.1 µM (active)

CC(OC(=O)c1ccc(NC(=O)CC#N)cc1)C(=O)NCCC1=CCCCC1 (stereo not drawn)
AC50 [2]: 0.439 µM (active)

Cc1c(Cl)c(=O)oc2cc(OCC(=O)N3CCCC(C)C3)ccc12 (stereo not drawn)
IC50 [11]: 6.55 µM (active) | IC50 [12]: 10.3 µM (active)

Cc1c(Br)c(O)c(Br)c2sc(=O)oc12
IC50 [14]: 62.3 µM (active)

COc1ccc(/C=C(\C#N)c2nc3cc(C)ccc3[nH]2)cc1Oc1ccc(C(F)(F)F)cc1[N+](=O)[O-]
EC50 [7]: 4.59 µM (active) | EC50 [8]: 8.78 µM (active)

C[C@H](NC(=O)C1CCN(S(=O)(=O)c2ccccc2)CC1)C(=O)NCc1ccc(Cl)c(Cl)c1
IC50 [11]: 12.4 µM (active) | IC50 [12]: 14.5 µM (active)
